The test addresses T1, Human PD-L1/PD-1 (Homo sapiens, UniProt Q9NZQ7).
T1 construct: TVMV protease cleavage site (C); made in house; host or cells: HEK293T cells
The experiment in a line: HTRF Human PD-L1/PD-1 binding assay (PD-1-Ig/PD-L1-His). The settings on record: PD-L1-His 10 nM, PD-1-Ig 20 nM; class symbol; read-out: HTRF Human PD-L1/PD-1 Binding Assay IC50 Range. The procedure, abridged: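 Soluble HEK293T-expressed proteins: hPD-L1-His 10 nM, hPD-1-Ig 20 nM final. Cpd + PD-L1 15 min, + PD-1 15 min, + Eu anti-Ig 1 nM/APC anti-His 20 nM 30 min. Buffer dPBS, 0.1% BSA, 0.05% Tween-20. TR-FRET 665/620.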
(Time-resolved FRET reads energy transfer from a long-lived donor to a nearby acceptor.)

*1 amine or outer side, *2 acyl side, *3 side chain or, on linkers, in order; H or OH if unused. Where a SMILES comes first, the peptide text is derived from it. Bridges are numbered along the chain shown (N, C = ends). [ ]: non-standard residue; d: D form. ξ: configuration not given here. X11 = CCCC[C@@H](C(=O)C1C[C@H](O)C[C@@H]1C(=O)[*:2])N(C)[*:1]; Phe(3,4,5-F3) = N[C@@H](Cc1cc(F)c(F)c(F)c1)C(=O)O; NMeAla(4-thiazolyl) = CN[C@@H](Cc1cscn1)C(=O)O; Phe(3-Cl) = N[C@@H](Cc1cccc(Cl)c1)C(=O)O; Phe(4-F) = N[C@@H](Cc1ccc(F)cc1)C(=O)O; ξαMeW = CC(N)(Cc1c[nH]c2ccccc12)C(=O)O; d(cisHyp) = O=C(O)[C@H]1C[C@@H](O)CN1; Hyp = O=C(O)[C@@H]1C[C@@H](O)CN1; NMeF = CN[C@@H](Cc1ccccc1)C(=O)O; X1 = O=C([C@H]1COCCN1[*:1])[*:2]; dPip(4-aza) = O=C(O)[C@H]1CNCCN1; NMeNle = CCCC[C@H](NC)C(=O)O; dPip = O=C(O)[C@H]1CCCCN1; NMeA = CN[C@@H](C)C(=O)O; Orn = NCCC[C@H](N)C(=O)O; dAze = O=C(O)[C@H]1CCN1; Sar = CNCC(=O)O

T1 sequence (Q9NZQ7 with tags, fused parts or gaps): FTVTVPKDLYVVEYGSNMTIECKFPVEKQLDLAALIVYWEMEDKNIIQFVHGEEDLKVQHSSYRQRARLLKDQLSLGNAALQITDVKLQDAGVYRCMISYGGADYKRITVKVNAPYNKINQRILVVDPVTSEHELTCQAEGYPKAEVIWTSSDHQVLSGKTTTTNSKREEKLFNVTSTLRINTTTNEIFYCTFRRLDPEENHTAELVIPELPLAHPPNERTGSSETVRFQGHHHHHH

As for `CCCC[C@H]1C(=O)N(C)CC(=O)N[C@@H](CC(N)=O)C(=O)N[C@@H](C(C)C)C(=O)N(C)[C@@H](Cc2ccccc2)C(=O)N[C@@H](Cc2ccc(O)cc2)C(=O)N(C)CC(=O)N[C@@H](Cc2c[nH]c3ccccc23)C(=O)N[C@@H](Cc2ccc(O)cc2)C(=O)N[C@@H](CCCN)C(=O)N[C@H](C(=O)NCC(N)=O)CSCC(=O)N[C@@H](Cc2ccccc2)C(=O)N(C)[C@@H](Cc2cscn2)C(=O)N1C` [Example 3616] ({CH2CO}-F[NMeAla(4-thiazolyl)][NMeNle][Sar]NV[NMeF]Y[Sar]WY[Orn]CG-NH2; thioether N-13), the IC50 is 10 to 99.9 nM.

Turning to `CCCC[C@H]1C(=O)N(C)CC(=O)N[C@@H](CC(=O)O)C(=O)N[C@@H](C(C)C)C(=O)N[C@@H](Cc2ccccc2)C(=O)N[C@@H](Cc2ccc(O)cc2)C(=O)N(C)CC(=O)NC(C)(Cc2c[nH]c3ccccc23)C(=O)N[C@@H](Cc2ccc(O)cc2)C(=O)N[C@@H](CC(C)C)C(=O)N[C@H](C(=O)NCC(N)=O)CSCC(=O)N[C@@H](Cc2ccccc2)C(=O)N(C)[C@@H](Cc2ccccc2)C(=O)N1C` (some centres unmarked) [Example 3639] ({CH2CO}-F[NMeF][NMeNle][Sar]DVFY[Sar][ξαMeW]YLCG-NH2; thioether N-13), the IC50 fell in the range of 1000 to 10000 nM.

As for `CCCC[C@H]1C(=O)N2CCCC[C@@H]2C(=O)N[C@@H](CC(=O)O)C(=O)N[C@@H](C(C)C)C(=O)N(C)[C@@H](Cc2ccccc2)C(=O)N[C@@H](CCC(=O)O)C(=O)N2CCOC[C@@H]2C(=O)N[C@@H](Cc2c[nH]c3ccccc23)C(=O)N[C@@H](Cc2ccc(O)cc2)C(=O)N[C@@H](CCCN)C(=O)N[C@H](C(=O)NCC(N)=O)CSCC(=O)N[C@@H](Cc2cc(F)c(F)c(F)c2)C(=O)N(C)[C@@H](Cc2ccccc2)C(=O)N1C` [Example 3641] ({CH2CO}-[Phe(3,4,5-F3)][NMeF][NMeNle][dPip]DV[NMeF]E[X1]WY[Orn]CG-NH2; thioether N-13), the IC50 was in the range of 10 to 99.9 nM.

Regarding `CCCC[C@H]1C(=O)C2C[C@H](O)C[C@@H]2C(=O)N[C@@H](CC(=O)O)C(=O)N[C@@H](C(C)C)C(=O)N(C)[C@@H](Cc2ccccc2)C(=O)N[C@@H](CCC(=O)O)C(=O)N2CCCC[C@@H]2C(=O)N[C@@H](Cc2c[nH]c3ccccc23)C(=O)N[C@@H](Cc2ccc(O)cc2)C(=O)N[C@@H](CCCN)C(=O)N[C@H](C(=O)NCC(N)=O)CSCC(=O)N[C@@H](Cc2cc(F)c(F)c(F)c2)C(=O)N(C)[C@@H](Cc2ccccc2)C(=O)N1C` (some centres unmarked) [Example 3642] ({CH2CO}-[Phe(3,4,5-F3)][NMeF][X11]DV[NMeF]E[dPip]WY[Orn]CG-NH2; thioether N-12), the IC50 lay within 10 to 99.9 nM.

As to `CCCC[C@H]1C(=O)N2CC[C@@H]2C(=O)N[C@@H](CC(=O)O)C(=O)N[C@@H](C(C)C)C(=O)N(C)[C@@H](Cc2ccccc2)C(=O)N[C@@H](CCC(=O)O)C(=O)N2CCOC[C@@H]2C(=O)N[C@@H](Cc2c[nH]c3ccccc23)C(=O)N[C@@H](Cc2ccc(O)cc2)C(=O)N[C@@H](CCCN)C(=O)N[C@H](C(=O)NCC(N)=O)CSCC(=O)N[C@@H](Cc2cc(F)c(F)c(F)c2)C(=O)N(C)[C@@H](Cc2ccccc2)C(=O)N1C` [Example 3643] ({CH2CO}-[Phe(3,4,5-F3)][NMeF][NMeNle][dAze]DV[NMeF]E[X1]WY[Orn]CG-NH2; thioether N-13), the IC50 is 10 to 99.9 nM.

Turning to `CCCC[C@H]1C(=O)N2C[C@H](O)C[C@@H]2C(=O)N[C@@H](CC(=O)O)C(=O)N[C@@H](C(C)C)C(=O)N(C)[C@@H](Cc2ccccc2)C(=O)N[C@@H](CCC(=O)O)C(=O)N2CC[C@@H]2C(=O)N[C@@H](Cc2c[nH]c3ccccc23)C(=O)N[C@@H](Cc2ccc(O)cc2)C(=O)N[C@@H](CCCN)C(=O)N[C@H](C(=O)NCC(N)=O)CSCC(=O)N[C@@H](Cc2cc(F)c(F)c(F)c2)C(=O)N(C)[C@@H](Cc2ccccc2)C(=O)N1C` [Example 3644] ({CH2CO}-[Phe(3,4,5-F3)][NMeF][NMeNle][d(cisHyp)]DV[NMeF]E[dAze]WY[Orn]CG-NH2; thioether N-13), the IC50 fell in the range of 1 to 9.9 nM.

For `CCCC[C@H]1C(=O)N2CCC[C@@H]2C(=O)N[C@@H](CC(=O)O)C(=O)N[C@@H](C(C)C)C(=O)N(C)[C@@H](Cc2ccccc2)C(=O)N[C@@H](CCC(=O)O)C(=O)N2CCOC[C@@H]2C(=O)N[C@@H](Cc2c[nH]c3ccccc23)C(=O)N[C@@H](Cc2ccc(O)cc2)C(=O)N[C@@H](CCCN)C(=O)N[C@H](C(=O)NCC(N)=O)CSCC(=O)N[C@@H](Cc2cc(F)c(F)c(F)c2)C(=O)N(C)[C@@H](Cc2ccccc2)C(=O)N1C` [Example 3645] ({CH2CO}-[Phe(3,4,5-F3)][NMeF][NMeNle][dP]DV[NMeF]E[X1]WY[Orn]CG-NH2; thioether N-13), the IC50 was 10 to 99.9 nM.

For the compound `CCCC[C@H]1C(=O)N2C[C@H](O)C[C@@H]2C(=O)N[C@@H](CC(=O)O)C(=O)N[C@@H](C(C)C)C(=O)N(C)[C@@H](Cc2ccccc2)C(=O)N[C@@H](CCC(=O)O)C(=O)N2CCC[C@@H]2C(=O)N[C@@H](Cc2c[nH]c3ccccc23)C(=O)N[C@@H](Cc2ccc(O)cc2)C(=O)N[C@@H](CCCN)C(=O)N[C@H](C(=O)NCC(N)=O)CSCC(=O)N[C@@H](Cc2cc(F)c(F)c(F)c2)C(=O)N(C)[C@@H](Cc2ccccc2)C(=O)N1C` [Example 3646] ({CH2CO}-[Phe(3,4,5-F3)][NMeF][NMeNle][d(cisHyp)]DV[NMeF]E[dP]WY[Orn]CG-NH2; thioether N-13), the IC50 was in the range of 10 to 99.9 nM.

Take `CCCC[C@H]1C(=O)N2C[C@H](O)C[C@@H]2C(=O)N[C@@H](CC(=O)O)C(=O)N[C@@H](C(C)C)C(=O)N(C)[C@@H](Cc2ccccc2)C(=O)N[C@@H](CCC(=O)O)C(=O)N2CCNC[C@@H]2C(=O)N[C@@H](Cc2c[nH]c3ccccc23)C(=O)N[C@@H](Cc2ccc(O)cc2)C(=O)N[C@@H](CCCN)C(=O)N[C@H](C(=O)NCC(N)=O)CSCC(=O)N[C@@H](Cc2cccc(Cl)c2)C(=O)N(C)[C@@H](Cc2ccccc2)C(=O)N1C` [Example 3647] ({CH2CO}-[Phe(3-Cl)][NMeF][NMeNle][d(cisHyp)]DV[NMeF]E[dPip(4-aza)]WY[Orn]CG-NH2; thioether N-13): the IC50 is 10 to 99.9 nM.

With `CCCC[C@H]1C(=O)N2C[C@H](O)C[C@@H]2C(=O)N[C@@H](CC(=O)O)C(=O)N[C@@H](C(C)C)C(=O)N(C)[C@@H](Cc2ccccc2)C(=O)N[C@@H](CCC(=O)O)C(=O)N2CCNC[C@@H]2C(=O)N[C@@H](Cc2c[nH]c3ccccc23)C(=O)N[C@@H](Cc2ccc(O)cc2)C(=O)N[C@@H](CCCN)C(=O)N[C@H](C(=O)NCC(N)=O)CSCC(=O)N[C@@H](Cc2ccc(F)cc2)C(=O)N(C)[C@@H](Cc2ccccc2)C(=O)N1C` [Example 3648] ({CH2CO}-[Phe(4-F)][NMeF][NMeNle][d(cisHyp)]DV[NMeF]E[dPip(4-aza)]WY[Orn]CG-NH2; thioether N-13), the IC50 was in the range of 10 to 99.9 nM.

As to `CCCC[C@H]1C(=O)N(C)[C@@H](CCCC)C(=O)N[C@@H](CCC(=O)O)C(=O)N[C@H](C(=O)NCC(N)=O)CSCC(=O)N[C@@H](Cc2ccc(O)cc2)C(=O)N(C)[C@@H](C)C(=O)N[C@@H](CC(N)=O)C(=O)N2CCC[C@H]2C(=O)N[C@@H](Cc2c[nH]cn2)C(=O)N[C@@H](CCC(=O)O)C(=O)N2C[C@H](O)C[C@H]2C(=O)N[C@@H](Cc2c[nH]c3ccccc23)C(=O)N[C@@H](CO)C(=O)N[C@@H](Cc2c[nH]c3ccccc23)C(=O)N1C` [Example 5150] ({CH2CO}-Y[NMeA]NPHE[Hyp]WSW[NMeNle][NMeNle]ECG-NH2; thioether N-14), the IC50 is 1 to 9.9 nM.

These data come from patent publication US10538555B2, “Macrocyclic inhibitors of the PD-1/PD-L1 and CD80(B7-1)/PD-L1 protein/protein interactions” (BRISTOL-MYERS SQUIBB COMPANY, priority 2014, dated 2020).
